Test system: serum testosterone
Experiment: Testosterone suppression in rats after injection of leuprolide acetate self-encapsulated PLGA microspheres
Assay type: in vivo, male Sprague-Dawley rats
Settings: for testosterone suppression: result in words
Description: Evaluation of testosterone suppression in rats following injection of leuprolide acetate self-encapsulated PLGA microspheres: The ability of PLGA self-healing microencapsulation to provide long-term in vivo release was evaluated by assessing long-term testosterone suppression after a single injection of leuprolide acetate self-encapsulated PLGA microspheres in male Sprague-Dawley rats (S5-S8). The treatment of experimental animals was in accordance with University committee on use and care of animals (University of Michigan UCUCA), and all NIH guidelines for the care and use of laboratory animals. Male Sprague-Dawley rats of 6 weeks old were housed in cages and given free access to standard laboratory food and water, and allowed one week to acclimate prior to study initiation. Animals were anesthetized with 2-4% isoflurane administered by a calibrated vaporizer (Midmark, Orchard Park, N.Y., USA). The leuprolide acetate self-encapsulated PLGA microspheres (1×2-month dose), leuprolide acetate solution (1×1-month dose), and blank SM PLGA microspheres without drug (1× dose) in a liquid vehicle (1% w/v carboxymethylcellulose and 2% w/v mannitol), and commercial 1-month Lupron Depot (Abbott Laboratories, North Chicago, Ill., USA) (2× dosing at days 0 and 28) were subcutaneously injected at the back (lower neck portion) of rats (6 animals/study group). […]
PLGA self-healing microencapsulation provides long-term delivery of bioactive large molecules in vivo—Long-term testosterone suppression in rats after single injection of leuprolide acetate self-encapsulated PLGA microspheres: Leuprolide acetate (Mw=1209.6 Da) is commonly used in the treatment of hormone-dependent cancers (e.g., prostate cancer) and gynecologic disorders (e.g., endometriosis and precocious puberty). […] The ability of PLGA self-healing microencapsulation to provide long-term in vivo release was evaluated by assessing long-term testosterone suppression in male Sprague-Dawley rats (six rats/study group) in comparison with commercial Lupron Depot™ and negative controls (FIG. 2C). […]

CCNC(=O)[C@@H]1CCCN1C(=O)[C@H](CCCNC(=N)N)NC(=O)[C@H](CC(C)C)NC(=O)[C@@H](CC(C)C)NC(=O)[C@H](Cc1ccc(O)cc1)NC(=O)[C@H](CO)NC(=O)[C@H](Cc1c[nH]c2ccccc12)NC(=O)[C@H](Cc1c[nH]cn1)NC(=O)[C@@H]1CCC(=O)N1 [leuprolide solution, Leuprolide acetate]
serum testosterone level (one day after subcutaneous injection): ~5 ng/mL
testosterone suppression: failed to provide testosterone suppression below the castration level
testosterone suppression (listed as solution leuprolide): ineffective to suppress testosterone
